Results on 27 compounds are retold here after US8188139B2, “Heterocyclic-substituted phenyl methanones” (Hoffman-La Roche Inc., priority 2005, dated 2012).

The experiment addresses T1, mGlyT-1b (Mus musculus, UniProt P28571).
T1 construct: host or cells: Flp-in-CHO
T1 sequence (P28571 1-651 isoform P28571-2): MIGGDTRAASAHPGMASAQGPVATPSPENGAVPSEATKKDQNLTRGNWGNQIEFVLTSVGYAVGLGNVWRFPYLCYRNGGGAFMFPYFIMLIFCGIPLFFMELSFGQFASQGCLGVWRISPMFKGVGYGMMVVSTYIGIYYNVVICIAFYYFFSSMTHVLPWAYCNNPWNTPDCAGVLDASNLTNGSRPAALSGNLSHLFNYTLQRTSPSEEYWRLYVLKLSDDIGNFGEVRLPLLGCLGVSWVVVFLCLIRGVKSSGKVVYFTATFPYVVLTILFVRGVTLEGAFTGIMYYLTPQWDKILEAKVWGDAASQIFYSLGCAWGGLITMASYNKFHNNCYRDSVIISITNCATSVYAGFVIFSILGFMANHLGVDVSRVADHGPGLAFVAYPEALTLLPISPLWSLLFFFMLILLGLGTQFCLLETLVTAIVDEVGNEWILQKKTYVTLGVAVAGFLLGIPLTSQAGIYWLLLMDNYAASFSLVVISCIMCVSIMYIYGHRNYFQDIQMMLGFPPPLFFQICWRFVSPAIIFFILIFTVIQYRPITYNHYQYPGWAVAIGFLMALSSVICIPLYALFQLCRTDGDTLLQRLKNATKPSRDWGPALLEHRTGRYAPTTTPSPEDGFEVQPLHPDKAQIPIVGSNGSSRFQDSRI
The experiment is described as follows: Glycine uptake inhibition assay (mGlyT-1b). The note with it: inhibition of [3H]-glycine uptake in Flp-in-CHO cells transfected with mGlyT-1b cDNA; 20 min preincubation at 22° C.; read-out: IC50 (μM) at GlyT-1. In kind it is cell-based. In a few lines: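 Flp-in CHO cells stably expressing mouse GlyT-1b were preincubated with inhibitor (concentration range) for 20 min at 22° C. in pH 7.4 uptake buffer; nonspecific uptake defined with 10 mM glycine. [3H]-glycine 60 nM plus 25 μM unlabelled glycine was then added; cell-associated radioactivity counted by scintillation and IC50 derived.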

In the case of `C[C@@H](Oc1ccc(S(C)(=O)=O)cc1C(=O)N1Cc2ccc(C(F)(F)F)cc2C1)C(F)(F)F` [Example 17, [5-Methanesulfonyl-2-((R)-2,2,2-trifluoro-1-methyl-ethoxy)-phenyl]-(5-trifluoromethyl-1,3-dihydro-isoindol-2-yl)-methanone], the IC50 is 0.012 µM.

Regarding `Cc1cscc1-c1ccc2c(c1)CN(C(=O)c1cc(S(C)(=O)=O)ccc1O[C@@H](C)C(F)(F)F)C2` [Example 345], the IC50 came to 0.034 µM.

For `CC(C)Oc1ccc(S(C)(=O)=O)cc1C(=O)N1Cc2ccc(OC3CCOCC3)cc2C1` [Example 373, (2-Isopropoxy-5-methanesulfonyl-phenyl)-[5-(tetrahydro-pyran-4-yloxy)-1,3-dihydro-isoindol-2-yl]-methanone], the IC50 was found to be 0.015 µM.

Consider `CC(Oc1ccc(S(C)(=O)=O)cc1C(=O)N1Cc2cc(Cl)c(Cl)cc2C1)C(F)(F)F` (racemic) [Example 9, rac-(5,6-Dichloro-1,3-dihydro-isoindol-2-yl)-[5-methanesulfonyl-2-(2,2,2-trifluoro-1-methyl-ethoxy)-phenyl]-methanone], for which the IC50 was determined as 0.031 µM.

In the case of `C[C@H](Oc1ccc(S(C)(=O)=O)cc1C(=O)N1Cc2cc(Cl)c(C3CCOCC3)cc2C1)C(F)(F)F` [Example 305, [5-Chloro-6-(tetra-hydro-pyran-4-yl)-1,3-dihydro-isoindol-2-yl]-[5-methane-sulfonyl-2-((S)-2,2,2-trifluoro-1-methyl-ethoxy)-phenyl]-methanone], the IC50 came to 0.037 µM.

`C[C@H](Oc1ccc(S(C)(=O)=O)cc1C(=O)N1Cc2cc(F)c(C(F)(F)F)cc2C1)C(F)(F)F` [Example 224, (5-Fluoro-6-trifluoromethyl-1,3-dihydro-isoindol-2-yl)-[5-methanesulfonyl-2-((S)-2,2,2-trifluoro-1-methyl-ethoxy)-phenyl]-methanone]: the IC50 is 0.019 µM.

Take `C[C@H](Oc1ccc(S(C)(=O)=O)cc1C(=O)N1Cc2ccc(N3[C@@H]4CC[C@H]3COC4)cc2C1)C(F)(F)F` [Example 295, [5-Methanesulfonyl-2-((S)-2,2,2-trifluoro-1-methyl-ethoxy)-phenyl]-[(1R,5S)-5-(3-oxa-8-aza-bicyclo[3.2.1]oct-8-yl)-1,3-dihydro-isoindol-2-yl]-methanone]: the IC50 came to 0.04 µM.

Regarding `CCc1cc2c(cc1C1CCOCC1)CN(C(=O)c1cc(S(C)(=O)=O)ccc1O[C@@H](C)C(F)(F)F)C2` [Example 306, [5-Ethyl-6-(tetrahydro-pyran-4-yl)-1,3-dihydro-isoindol-2-yl]-[5-methanesulfonyl-2-((S)-2,2,2-trifluoro-1-methyl-ethoxy)-phenyl]-methanone], the half-inhibitory concentration (IC50) worked out at 0.087 µM.

As to `C[C@H](Oc1ccc(S(C)(=O)=O)cc1C(=O)N1Cc2cc(F)c(N3CCOCC3)cc2C1)C(F)(F)F` [Example 371, (5-Fluoro-6-morpholin-4-yl-1,3-dihydro-isoindol-2-yl)-[5-methanesulfonyl-2-((S)-2,2,2-trifluoro-1-methyl-ethoxy)-phenyl]-methanone], the IC50 worked out at 0.006 µM.

Regarding `Cc1csc(-c2ccc3c(c2)CN(C(=O)c2cc(S(C)(=O)=O)ccc2O[C@@H](C)C(F)(F)F)C3)c1` [Example 331, [5-Methanesulfonyl-2-(2,2,2-trifluoro-1-methyl-ethoxy)-phenyl]-[5-(4-methyl-thiophen-2-yl)-1,3-dihydro-isoindol-2-yl]-methanone], the IC50 was found to be 0.022 µM.

On to `C[C@H](Oc1ccc(S(C)(=O)=O)cc1C(=O)N1Cc2ccc(-c3nccs3)cc2C1)C(F)(F)F` [Example 172, [5-Methanesulfonyl-2-((S)-2,2,2-trifluoro-1-methyl-ethoxy)-phenyl]-(5-thiazol-2-yl-1,3-dihydro-isoindol-2-yl)-methanone], for which the IC50 is 0.03 µM.

For `CS(=O)(=O)c1ccc(OCC2CCC2)c(C(=O)N2Cc3ccc(C4CCOCC4)cc3C2)c1` [Example 272, (2-Cyclobutyl-methoxy-5-methane-sulfonyl-phenyl)-[5-(tetrahydro-pyran-4-yl)-1,3-dihydro-isoindol-2-yl]-methanone], the IC50 was determined as 0.034 µM.

For the compound `C[C@H](Oc1ccc(S(C)(=O)=O)cc1C(=O)N1Cc2ccc(N3CCCC(F)(F)C3)cc2C1)C(F)(F)F` [Example 287, [5-(3,3-Difluoro-piperidin-1-yl)-1,3-dihydro-isoindol-2-yl]-[5-methanesulfonyl-2-((S)-2,2,2-trifluoro-1-methyl-ethoxy)-phenyl]-methanone], the IC50 turned out to be 0.043 µM.

Consider `C[C@H](Oc1ccc(S(C)(=O)=O)cc1C(=O)N1Cc2ccc(-c3ccccc3Cl)cc2C1)C(F)(F)F` [Example 324, [5-(2-Chloro-phenyl)-1,3-dihydro-isoindol-2-yl]-[5-methanesulfonyl-2-(2,2,2-trifluoro-1-methyl-ethoxy)-phenyl]-methanone], for which the IC50 came out at 0.045 µM.

As to `CC(C)Oc1ccc(S(C)(=O)=O)cc1C(=O)N1Cc2ccc(C3CCOC3)cc2C1` (racemic) [Example 360, rac-(2-Isopropoxy-5-methanesulfonyl-phenyl)-[5-(tetrahydro-furan-3-yl)-1,3-dihydro-isoindol-2-yl]-methanone], the IC50 turned out to be 0.022 µM.

In the case of `C[C@H](Oc1ccc(S(C)(=O)=O)cc1C(=O)N1Cc2ccc(-c3ccc(F)cc3)cc2C1)C(F)(F)F` [Example 333, [5-(4-Fluoro-phenyl)-1,3-dihydro-isoindol-2-yl]-[5-methanesulfonyl-2-(2,2,2-trifluoro-1-methyl-ethoxy)-phenyl]-methanone], the IC50 is 0.047 µM.

Regarding `C[C@H](Oc1ccc(S(C)(=O)=O)cc1C(=O)N1Cc2ccc(-c3ccccc3F)cc2C1)C(F)(F)F` [Example 335, [5-(2-Fluoro-phenyl)-1,3-dihydro-isoindol-2-yl]-[5-methanesulfonyl-2-(2,2,2-trifluoro-1-methyl-ethoxy)-phenyl]-methanone], the IC50 was found to be 0.031 µM.

Take `CS(=O)(=O)c1ccc(-c2ccc(F)c(F)c2)c(C(=O)N2Cc3cnc(C(F)(F)F)cc3C2)c1` [Example 146, (3′,4′-Difluoro-4-methanesulfonyl-biphenyl-2-yl)-(6-trifluoromethyl-1,3-dihydro-pyrrolo[3,4-c]pyridin-2-yl)-methanone]: the IC50 was determined as 0.047 µM.

Regarding `C[C@H](Oc1ccc(S(C)(=O)=O)cc1C(=O)N1Cc2ccc(C3CCOC3)cc2C1)C(F)(F)F` (stereo partly drawn) [Example 304, [5-Methanesulfonyl-2-((S)-2,2,2-trifluoro-1-methyl-ethoxy)-phenyl]-[5-(tetra-hydro-furan-3-yl)-1,3-dihydro-isoindol-2-yl]-methanone], the IC50 was 0.008 µM.

Regarding `C[C@H](Oc1ccc(S(C)(=O)=O)cc1C(=O)N1CCc2c(Br)cccc21)C(F)(F)F` [Example 211, (4-Bromo-2,3-dihydro-indol-1-yl)-[5-methanesulfonyl-2-((S)-2,2,2-trifluoro-1-methyl-ethoxy)-phenyl]-methanone], the IC50 amounted to 0.034 µM.

For `COC(=O)c1cccc2c1CCN2C(=O)c1cc(S(C)(=O)=O)ccc1OC(C)C` [Example 206, 1-(2-Isopropoxy-5-methanesulfonyl-benzoyl)-2,3-dihydro-1#H!-indole-4-carboxylic acid methyl ester], the IC50 was determined as 0.041 µM.

In the case of `CS(=O)(=O)c1ccc(-c2ccc(F)c(F)c2)c(C(=O)N2Cc3cc(C(F)(F)F)cnc3C2)c1` [Example 148, (3′,4′-Difluoro-4-methanesulfonyl-biphenyl-2-yl)-(3-trifluoromethyl-5,7-dihydro-pyrrolo[3,4-b]pyridin-6-yl)-methanone], the IC50 is 0.032 µM.

As for `CCSc1ccc2c(c1)CN(C(=O)c1cc(S(C)(=O)=O)ccc1O[C@@H](C)C(F)(F)F)C2` [Example 32, (5-Ethylsulfanyl-1,3-dihydro-isoindol-2-yl)-[5-methanesulfonyl-2-((S)-2,2,2-trifluoro-1-methyl-ethoxy)-phenyl]-methanone], the IC50 came out at 0.037 µM.

With `COc1cc2c(cc1C(F)(F)F)CN(C(=O)c1cc(S(C)(=O)=O)ccc1O[C@@H](C)C(F)(F)F)C2` [Example 100], the IC50 worked out at 0.045 µM.

Turning to `CC(C)Oc1ccc(S(C)(=O)=O)cc1C(=O)N1Cc2ccc(C3CCOCC3)cc2C1` [Example 268, (2-Isopropoxy-5-methanesulfonyl-phenyl)-[5-(tetrahydro-pyran-4-yl)-1,3-dihydro-isoindol-2-yl]-methanone], the IC50 amounted to 0.028 µM.

In the case of `C[C@H](Oc1ccc(S(C)(=O)=O)cc1C(=O)N1Cc2ccc(-c3ccccc3)cc2C1)C(F)(F)F` [Example 323, [5-Methanesulfonyl-2-((S)-2,2,2-trifluoro-1-methyl-ethoxy)-phenyl]-(5-phenyl-1,3-dihydro-isoindol-2-yl)-methanone], the IC50 was found to be 0.013 µM.

For the compound `C[C@H](Oc1ccc(S(C)(=O)=O)cc1C(=O)N1Cc2ccc(C3CCOCC3)cc2C1)C(F)(F)F` [Example 269, [5-Methanesulfonyl-2-((S)-2,2,2-trifluoro-1-methyl-ethoxy)-phenyl]-[5-(tetrahydro-pyran-4-yl)-1,3-dihydro-isoindol-2-yl]-methanone], the IC50 was 0.014 µM.
